Literature values as cited in patent US20080241292A1, “COMPOSITION AND METHOD FOR WEIGHT LOSS” (IOMEDIX DEVELOPMENT INTERNATIONAL SRL, priority 2006, published 2008).
Ends that are not written are not given here.

Columns and labels:
[1] = humans
[2] = exogenous administration to humans

| Molecule | satiety [1] | food intake [2] |
| --- | --- | --- |
| Glucagon-like peptide-1 (HAEGTFTSDVSSYLEGQAAKEFIAWLVKGR; ends and bridges not checked; UniProt P01275 98-127, looked up) [GLP-1, satiety signal peptide] | increase satiety | – |
| Cholecystokinin (peptide, UniProt P06307 21-115, looked up, Cholecystokinin, satiety signal peptide secreted from intestinal cells in response to nutrients) Cholecystokinin: QPVPPADPAGSGLQRAEEAPRRQLRVSQRTDGESRAHLGALLARYIQQARKAPSGRMSIVKNLQNLDPSHRISDRDYMGWMDFGRRSAEEYEYPS | – | reduction in food intake |
